These results are taken from patent publication US20250051338A1, “TYK2 DEGRADERS AND USES THEREOF” (Kymera Therapeutics, Inc., priority 2021, published 2025).

The target of the first assay is T1, TYK2 (Homo sapiens, UniProt P29597). The assay is described as follows: TYK2 degradation MSD assay in OCI-LY10 cells. The assay is classed as cell-based. Further details: endogenous in cells; host or cells: EBV-B cells. The following applies: 4 to 24 hours incubation, read-out: TYK2 MSD DC50 rating in OCI-LY10. Put shortly: (§1)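 0.4 million cells/well; cpd 9-dose 1:3 titration, top 1–10 μM; 4–24 h, 37° C, 5% CO2; RIPA lysis; TYK2 capture/detection sandwich on MSD, SULFO-TAG anti-rabbit secondary; DC50 via 4-parameter fit.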
T1 sequence (P29597 whole entry): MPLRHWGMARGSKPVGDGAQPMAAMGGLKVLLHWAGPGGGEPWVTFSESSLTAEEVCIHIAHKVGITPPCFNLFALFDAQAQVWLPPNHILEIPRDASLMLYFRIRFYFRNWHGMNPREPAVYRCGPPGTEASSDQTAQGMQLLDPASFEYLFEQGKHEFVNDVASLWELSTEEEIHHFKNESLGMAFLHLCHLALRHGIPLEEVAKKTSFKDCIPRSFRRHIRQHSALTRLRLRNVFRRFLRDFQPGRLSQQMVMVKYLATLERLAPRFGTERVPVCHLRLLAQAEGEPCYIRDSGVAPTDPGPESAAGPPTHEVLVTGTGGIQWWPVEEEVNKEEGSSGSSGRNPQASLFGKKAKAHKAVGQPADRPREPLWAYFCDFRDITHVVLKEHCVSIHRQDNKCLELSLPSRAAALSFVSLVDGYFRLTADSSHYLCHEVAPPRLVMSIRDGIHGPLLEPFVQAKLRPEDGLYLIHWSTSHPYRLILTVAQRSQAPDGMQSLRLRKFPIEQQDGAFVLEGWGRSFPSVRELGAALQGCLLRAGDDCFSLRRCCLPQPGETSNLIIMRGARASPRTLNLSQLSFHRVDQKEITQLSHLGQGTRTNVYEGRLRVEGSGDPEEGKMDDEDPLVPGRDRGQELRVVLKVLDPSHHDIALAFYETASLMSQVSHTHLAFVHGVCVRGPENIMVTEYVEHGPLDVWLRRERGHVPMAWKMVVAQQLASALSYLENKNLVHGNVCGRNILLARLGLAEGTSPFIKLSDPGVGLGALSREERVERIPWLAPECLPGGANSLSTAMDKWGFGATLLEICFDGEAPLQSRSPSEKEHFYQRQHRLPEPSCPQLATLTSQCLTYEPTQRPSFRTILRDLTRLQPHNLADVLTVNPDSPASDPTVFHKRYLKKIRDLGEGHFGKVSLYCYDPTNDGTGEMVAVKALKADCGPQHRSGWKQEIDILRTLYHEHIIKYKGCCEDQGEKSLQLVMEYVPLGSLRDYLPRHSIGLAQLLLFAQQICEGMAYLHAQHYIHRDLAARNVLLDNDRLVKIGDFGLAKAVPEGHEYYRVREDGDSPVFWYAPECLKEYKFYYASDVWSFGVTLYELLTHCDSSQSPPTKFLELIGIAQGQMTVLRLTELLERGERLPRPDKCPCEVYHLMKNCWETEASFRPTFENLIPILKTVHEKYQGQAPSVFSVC
For the compound `CNc1cc(-c2cccc(C(=O)NCCCCCCc3cccc4c3n(C)c(=O)n4C3CCC(=O)NC3=O)c2)nn2c(C(=O)N[C@@H]3C[C@@H]3F)cnc12` (stereo partly drawn) [Example K308], the half-maximal degradation concentration (DC50) is greater than 100 nM.
Still for that read-out and setting: for `CNc1cc(-c2cccc(C(=O)NCCCCCCCCc3ccc4c(c3)n(C)c(=O)n4C3CCC(=O)NC3=O)c2)nn2c(C(=O)NC3C[C@@H]3F)cnc12` (stereo partly drawn) [Example K309] the value was greater than 100 nM; for `CNc1cc(-c2cccc(C(=O)NCCCCCCCCc3cccc4c3n(C)c(=O)n4C3CCC(=O)NC3=O)c2)nn2c(C(=O)N[C@@H]3C[C@@H]3F)cnc12` (stereo partly drawn) [Example K310], greater than 100 nM.
The same measure, in the same setting: for `CNc1cc(-c2cnn(C3CCN(C(=O)NCCCCCCc4ccc5c(c4)n(C)c(=O)n5C4CCC(=O)NC4=O)CC3)c2)nn2c(C(=O)N[C@@H]3C[C@@H]3F)cnc12` (stereo partly drawn) [Example K311] the value was greater than 100 nM; for `CNc1cc(-c2cnn(C3CCN(C(=O)NCCCCCCc4cccc5c4n(C)c(=O)n5C4CCC(=O)NC4=O)CC3)c2)nn2c(C(=O)N[C@@H]3C[C@@H]3F)cnc12` (stereo partly drawn) [Example K312], greater than 100 nM.
Turning to `CNc1cc(-c2cnn(C3CCN(C(=O)NCCCCCCCCc4cccc5c4n(C)c(=O)n5C4CCC(=O)NC4=O)CC3)c2)nn2c(C(=O)N[C@@H]3C[C@@H]3F)cnc12` (stereo partly drawn) [Example K313], the DC50 was greater than 100 nM.
Still for that read-out and setting: for `CNc1cc(-c2cnn(C3CN(C(=O)NCCCCc4ccc5c(c4)n(C)c(=O)n5C4CCC(=O)NC4=O)C3)c2)nn2c(C(=O)N[C@@H]3C[C@@H]3F)cnc12` (stereo partly drawn) [Example K314] the value was greater than 100 nM.
Still for that read-out and setting: as for `CNc1cc(-c2cnn(C3CN(C(=O)NCCCCCCc4ccc5c(c4)n(C)c(=O)n5C4CCC(=O)NC4=O)C3)c2)nn2c(C(=O)N[C@@H]3C[C@@H]3F)cnc12` (stereo partly drawn) [Example K315], the figure is greater than 100 nM; as for `CNc1cc(-c2cnn(C3CN(C(=O)NCCCCc4cccc5c4n(C)c(=O)n5C4CCC(=O)NC4=O)C3)c2)nn2c(C(=O)N[C@@H]3C[C@@H]3F)cnc12` (stereo partly drawn) [Example K316], greater than 100 nM; as for `CNc1cc(-c2cnn(C3CN(C(=O)NCCCCCCc4cccc5c4n(C)c(=O)n5C4CCC(=O)NC4=O)C3)c2)nn2c(C(=O)N[C@@H]3C[C@@H]3F)cnc12` (stereo partly drawn) [Example K317], greater than 100 nM.
On the same count and under the same terms, as for `CNc1cc(-c2cnn(C3CN(C(=O)NCCCCCCCCc4ccc5c(c4)n(C)c(=O)n5C4CCC(=O)NC4=O)C3)c2)nn2c(C(=O)NC3C[C@@H]3F)cnc12` (stereo partly drawn) [Example K318], the figure is greater than 100 nM; as for `CNc1cc(-c2cnn(C3CN(C(=O)NCCCCCCCCc4cccc5c4n(C)c(=O)n5C4CCC(=O)NC4=O)C3)c2)nn2c(C(=O)N[C@@H]3C[C@@H]3F)cnc12` (stereo partly drawn) [Example K319], greater than 100 nM; as for `CNc1cc(Nc2cccn(-c3ccc(C(=O)NCCCCc4ccc5c(c4)n(C)c(=O)n5C4CCC(=O)NC4=O)cn3)c2=O)nn2c(C(N)=O)cnc12` (stereo not drawn) [Example K320], greater than 100 nM.
`CNc1cc(Nc2cccn(-c3ccc(C(=O)NCCCCc4ccc5c(c4)n(C)c(=O)n5C4CCC(=O)NC4=O)cn3)c2=O)nn2c(C(=O)NC3CCC3)cnc12` (stereo not drawn) [Example K321]: the DC50 is greater than 100 nM.
On the same count and under the same terms, for `CNc1cc(Nc2cccn(-c3ccc(C(=O)NCCCCc4ccc5c(c4)n(C)c(=O)n5C4CCC(=O)NC4=O)cn3)c2=O)nn2c(C(=O)NC3CC3)cnc12` (stereo not drawn) [Example K322] the value was greater than 100 nM.
On the same count and under the same terms, as for `Cn1c(=O)n(C2CCC(=O)NC2=O)c2ccc(CCCCNC(=O)c3ccc(-c4ccc5ncc(C(=O)N[C@@H]6C[C@@H]6F)n5n4)cc3)cc21` (stereo partly drawn) [Example K324], the figure is greater than 100 nM.

Another assay deals with T1, TYK2. The experiment in a line: TYK2 degradation MSD assay in human PBMC cells. The assay is classed as cell-based. Further details: endogenous in cells; host or cells: human PBMC. The following applies: 4 to 24 hours incubation, read-out: TYK2 MSD DC50 rating in human PBMC. Put shortly: as §1
Take `CNc1cc(-c2cccc(C(=O)NCCCCCCc3cccc4c3n(C)c(=O)n4C3CCC(=O)NC3=O)c2)nn2c(C(=O)N[C@@H]3C[C@@H]3F)cnc12` (stereo partly drawn) [Example K308]: the DC50 was greater than 100 nM.
Same read-out and setting: for `CNc1cc(-c2cccc(C(=O)NCCCCCCCCc3ccc4c(c3)n(C)c(=O)n4C3CCC(=O)NC3=O)c2)nn2c(C(=O)NC3C[C@@H]3F)cnc12` (stereo partly drawn) [Example K309] the value was greater than 100 nM; for `CNc1cc(-c2cccc(C(=O)NCCCCCCCCc3cccc4c3n(C)c(=O)n4C3CCC(=O)NC3=O)c2)nn2c(C(=O)N[C@@H]3C[C@@H]3F)cnc12` (stereo partly drawn) [Example K310], greater than 100 nM; for `CNc1cc(-c2cnn(C3CCN(C(=O)NCCCCCCc4ccc5c(c4)n(C)c(=O)n5C4CCC(=O)NC4=O)CC3)c2)nn2c(C(=O)N[C@@H]3C[C@@H]3F)cnc12` (stereo partly drawn) [Example K311], greater than 100 nM.
On to `CNc1cc(-c2cnn(C3CCN(C(=O)NCCCCCCc4cccc5c4n(C)c(=O)n5C4CCC(=O)NC4=O)CC3)c2)nn2c(C(=O)N[C@@H]3C[C@@H]3F)cnc12` (stereo partly drawn) [Example K312], for which the DC50 is greater than 100 nM.
On the same count and under the same terms, as for `CNc1cc(-c2cnn(C3CCN(C(=O)NCCCCCCCCc4cccc5c4n(C)c(=O)n5C4CCC(=O)NC4=O)CC3)c2)nn2c(C(=O)N[C@@H]3C[C@@H]3F)cnc12` (stereo partly drawn) [Example K313], the figure is 1 to 10 nM; as for `CNc1cc(-c2cnn(C3CN(C(=O)NCCCCc4ccc5c(c4)n(C)c(=O)n5C4CCC(=O)NC4=O)C3)c2)nn2c(C(=O)N[C@@H]3C[C@@H]3F)cnc12` (stereo partly drawn) [Example K314], greater than 100 nM; as for `CNc1cc(-c2cnn(C3CN(C(=O)NCCCCCCc4ccc5c(c4)n(C)c(=O)n5C4CCC(=O)NC4=O)C3)c2)nn2c(C(=O)N[C@@H]3C[C@@H]3F)cnc12` (stereo partly drawn) [Example K315], greater than 100 nM.
Still for that read-out and setting: as for `CNc1cc(-c2cnn(C3CN(C(=O)NCCCCc4cccc5c4n(C)c(=O)n5C4CCC(=O)NC4=O)C3)c2)nn2c(C(=O)N[C@@H]3C[C@@H]3F)cnc12` (stereo partly drawn) [Example K316], the figure is greater than 100 nM.
Still for that read-out and setting: as for `CNc1cc(-c2cnn(C3CN(C(=O)NCCCCCCc4cccc5c4n(C)c(=O)n5C4CCC(=O)NC4=O)C3)c2)nn2c(C(=O)N[C@@H]3C[C@@H]3F)cnc12` (stereo partly drawn) [Example K317], the figure is greater than 100 nM; as for `CNc1cc(-c2cnn(C3CN(C(=O)NCCCCCCCCc4ccc5c(c4)n(C)c(=O)n5C4CCC(=O)NC4=O)C3)c2)nn2c(C(=O)NC3C[C@@H]3F)cnc12` (stereo partly drawn) [Example K318], greater than 100 nM.
With `CNc1cc(-c2cnn(C3CN(C(=O)NCCCCCCCCc4cccc5c4n(C)c(=O)n5C4CCC(=O)NC4=O)C3)c2)nn2c(C(=O)N[C@@H]3C[C@@H]3F)cnc12` (stereo partly drawn) [Example K319], the DC50 is greater than 100 nM.
Still for that read-out and setting: as for `CNc1cc(Nc2cccn(-c3ccc(C(=O)NCCCCc4ccc5c(c4)n(C)c(=O)n5C4CCC(=O)NC4=O)cn3)c2=O)nn2c(C(N)=O)cnc12` (stereo not drawn) [Example K320], the figure is greater than 100 nM.
The same measure, in the same setting: as for `CNc1cc(Nc2cccn(-c3ccc(C(=O)NCCCCc4ccc5c(c4)n(C)c(=O)n5C4CCC(=O)NC4=O)cn3)c2=O)nn2c(C(=O)NC3CCC3)cnc12` (stereo not drawn) [Example K321], the figure is greater than 100 nM; as for `CNc1cc(Nc2cccn(-c3ccc(C(=O)NCCCCc4ccc5c(c4)n(C)c(=O)n5C4CCC(=O)NC4=O)cn3)c2=O)nn2c(C(=O)NC3CC3)cnc12` (stereo not drawn) [Example K322], greater than 100 nM.
The same measure, in the same setting: as for `Cn1c(=O)n(C2CCC(=O)NC2=O)c2ccc(CCCCNC(=O)c3ccc(-c4ccc5ncc(C(=O)N[C@@H]6C[C@@H]6F)n5n4)cc3)cc21` (stereo partly drawn) [Example K324], the figure is greater than 100 nM.

The target in another assay is T1, TYK2. The assay is described as follows: TYK2 degradation MSD assay in EBV-B cells. The assay is classed as cell-based. Also noted: endogenous in cells; host or cells: EBV-B cells. Particulars: 4 to 24 hours incubation, read-out: TYK2 MSD DC50 rating in EBV-B. A digest of the protocol:
as §1
As for `CNc1cc(-c2cccc(C(=O)NCCCCCCc3cccc4c3n(C)c(=O)n4C3CCC(=O)NC3=O)c2)nn2c(C(=O)N[C@@H]3C[C@@H]3F)cnc12` (stereo partly drawn) [Example K308], the DC50 was greater than 100 nM.
Turning to `CNc1cc(-c2cccc(C(=O)NCCCCCCCCc3ccc4c(c3)n(C)c(=O)n4C3CCC(=O)NC3=O)c2)nn2c(C(=O)NC3C[C@@H]3F)cnc12` (stereo partly drawn) [Example K309], the DC50 is greater than 100 nM.
Still for that read-out and setting: as for `CNc1cc(-c2cccc(C(=O)NCCCCCCCCc3cccc4c3n(C)c(=O)n4C3CCC(=O)NC3=O)c2)nn2c(C(=O)N[C@@H]3C[C@@H]3F)cnc12` (stereo partly drawn) [Example K310], the figure is greater than 100 nM; as for `CNc1cc(-c2cnn(C3CCN(C(=O)NCCCCCCc4ccc5c(c4)n(C)c(=O)n5C4CCC(=O)NC4=O)CC3)c2)nn2c(C(=O)N[C@@H]3C[C@@H]3F)cnc12` (stereo partly drawn) [Example K311], greater than 100 nM.
For `CNc1cc(-c2cnn(C3CCN(C(=O)NCCCCCCc4cccc5c4n(C)c(=O)n5C4CCC(=O)NC4=O)CC3)c2)nn2c(C(=O)N[C@@H]3C[C@@H]3F)cnc12` (stereo partly drawn) [Example K312], the DC50 was greater than 100 nM.
On the same count and under the same terms, for `CNc1cc(-c2cnn(C3CCN(C(=O)NCCCCCCCCc4cccc5c4n(C)c(=O)n5C4CCC(=O)NC4=O)CC3)c2)nn2c(C(=O)N[C@@H]3C[C@@H]3F)cnc12` (stereo partly drawn) [Example K313] the value was greater than 100 nM.
On the same count and under the same terms, as for `CNc1cc(-c2cnn(C3CN(C(=O)NCCCCc4ccc5c(c4)n(C)c(=O)n5C4CCC(=O)NC4=O)C3)c2)nn2c(C(=O)N[C@@H]3C[C@@H]3F)cnc12` (stereo partly drawn) [Example K314], the figure is greater than 100 nM; as for `CNc1cc(-c2cnn(C3CN(C(=O)NCCCCCCc4ccc5c(c4)n(C)c(=O)n5C4CCC(=O)NC4=O)C3)c2)nn2c(C(=O)N[C@@H]3C[C@@H]3F)cnc12` (stereo partly drawn) [Example K315], greater than 100 nM; as for `CNc1cc(-c2cnn(C3CN(C(=O)NCCCCc4cccc5c4n(C)c(=O)n5C4CCC(=O)NC4=O)C3)c2)nn2c(C(=O)N[C@@H]3C[C@@H]3F)cnc12` (stereo partly drawn) [Example K316], greater than 100 nM.
On the same count and under the same terms, for `CNc1cc(-c2cnn(C3CN(C(=O)NCCCCCCc4cccc5c4n(C)c(=O)n5C4CCC(=O)NC4=O)C3)c2)nn2c(C(=O)N[C@@H]3C[C@@H]3F)cnc12` (stereo partly drawn) [Example K317] the value was greater than 100 nM.
For `CNc1cc(-c2cnn(C3CN(C(=O)NCCCCCCCCc4ccc5c(c4)n(C)c(=O)n5C4CCC(=O)NC4=O)C3)c2)nn2c(C(=O)NC3C[C@@H]3F)cnc12` (stereo partly drawn) [Example K318], the DC50 was greater than 100 nM.
`CNc1cc(-c2cnn(C3CN(C(=O)NCCCCCCCCc4cccc5c4n(C)c(=O)n5C4CCC(=O)NC4=O)C3)c2)nn2c(C(=O)N[C@@H]3C[C@@H]3F)cnc12` (stereo partly drawn) [Example K319]: the DC50 was greater than 100 nM.
With `CNc1cc(Nc2cccn(-c3ccc(C(=O)NCCCCc4ccc5c(c4)n(C)c(=O)n5C4CCC(=O)NC4=O)cn3)c2=O)nn2c(C(N)=O)cnc12` (stereo not drawn) [Example K320], the DC50 is greater than 100 nM.
Take `CNc1cc(Nc2cccn(-c3ccc(C(=O)NCCCCc4ccc5c(c4)n(C)c(=O)n5C4CCC(=O)NC4=O)cn3)c2=O)nn2c(C(=O)NC3CCC3)cnc12` (stereo not drawn) [Example K321]: the DC50 is greater than 100 nM.
The same measure, in the same setting: as for `CNc1cc(Nc2cccn(-c3ccc(C(=O)NCCCCc4ccc5c(c4)n(C)c(=O)n5C4CCC(=O)NC4=O)cn3)c2=O)nn2c(C(=O)NC3CC3)cnc12` (stereo not drawn) [Example K322], the figure is greater than 100 nM; as for `Cn1c(=O)n(C2CCC(=O)NC2=O)c2ccc(CCCCNC(=O)c3ccc(-c4ccc5ncc(C(=O)N[C@@H]6C[C@@H]6F)n5n4)cc3)cc21` (stereo partly drawn) [Example K324], greater than 100 nM.
